From patent US12258336B2, “Preparation of seimicarbazide-sensitive amine oxidase inhibitor and use thereof” (SHANGHAI ENNOVABIO PHARMACEUTICALS CO., LTD., priority 2018, dated 2025)
pIC50: −log10 of the molar value.

Columns and labels:
[1] = biological target: T1, Recombinant human AOC1/DAO protein (Homo sapiens, UniProt P19801); experiment: Inhibitory activity on AOC1 (Amplex UltraRed); format: biochemical
T1 construct: purchased R&D systems 8298-AO
T1 sequence (P19801 20-751): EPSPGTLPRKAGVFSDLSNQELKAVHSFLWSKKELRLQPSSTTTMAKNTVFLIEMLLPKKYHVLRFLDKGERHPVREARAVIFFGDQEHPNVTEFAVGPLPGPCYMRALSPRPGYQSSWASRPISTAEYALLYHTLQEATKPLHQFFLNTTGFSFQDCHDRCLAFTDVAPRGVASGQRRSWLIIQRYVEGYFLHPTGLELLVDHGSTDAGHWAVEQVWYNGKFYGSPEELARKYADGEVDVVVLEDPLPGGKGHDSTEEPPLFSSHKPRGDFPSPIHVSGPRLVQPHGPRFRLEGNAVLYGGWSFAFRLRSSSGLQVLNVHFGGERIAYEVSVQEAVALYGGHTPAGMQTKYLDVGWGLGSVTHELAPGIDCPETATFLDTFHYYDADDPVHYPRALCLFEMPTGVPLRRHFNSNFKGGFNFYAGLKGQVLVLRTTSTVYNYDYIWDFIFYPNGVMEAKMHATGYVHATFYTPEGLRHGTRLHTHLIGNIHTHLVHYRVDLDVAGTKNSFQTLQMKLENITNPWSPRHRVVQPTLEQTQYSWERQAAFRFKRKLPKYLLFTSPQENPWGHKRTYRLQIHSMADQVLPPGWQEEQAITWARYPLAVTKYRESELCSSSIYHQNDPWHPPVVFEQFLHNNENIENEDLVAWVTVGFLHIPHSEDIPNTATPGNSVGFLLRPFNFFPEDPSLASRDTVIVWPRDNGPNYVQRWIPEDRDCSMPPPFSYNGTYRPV
Protocol: Recombinant human AOC1/DAO protein was purchased from R&D systems (Cat: 8298-AO). Amplex UltraRed was purchased from Thermo scientific (Cat: A36006). HRP (Cat: P8250) and Putrescine (Cat: V900377) were purchased from Sigma. Enzyme reaction buffer (50 mM HEPES, 120 mM NaCl, 5 mM KCl, 2 mM CaCl2, 1.4 mM MgCl2, 0.001% Tween-20, pH7.4) was prepared. Test compound was dissolved in DMSO and diluted by 3-fold concentration in gradient. The final concentration of test compound in 10 μL reaction system was 100 μM to 5 nM when AOC1 was detected. The content of DMSO in detection reaction was 1%. After the solution of test compound in DMSO was diluted in the enzyme reaction buffer at a volume ratio of 1:25, 10 μL of mixture was added to each well of detection plate. 4× substrate mixture (containing 400 μM Putrescine, 4 U/mL HRP, 4 μM Amplex UltraRed) was prepared in the enzyme reaction buffer, 10 μL of which was added to each well. 20 μL of AOC1 protein diluted in enzyme reaction buffer was added to each well at final concentration 0.4 nM in 40 μL reaction system. Synergy Neo 2 was used to read the plate for detection. The instrument was set at 30° C., 530 nm excitation wavelength, 590 nm emission wavelength. Detection was conducted once every minute for 30 minutes continuously. The enzyme activity was calculated based on the increased signal of each well from the 10th minute to the 30th minute. The value was converted into inhibition rate by the following formula Inhibition rate=(Signalpositive−Signaltest)/(Signalpositive−Signalnegative)×100%
Signalpositive was positive control without test compound. Signalnegative was negative control without test compound and AOC1, and Signaltest was detection value of different compounds at each concentration. IC50 value was calculated by using 4 parameter curve fitting.

[2] = biological target: T2, Recombinant human AOC2 protein (Homo sapiens, UniProt O75106); experiment: Inhibitory activity on AOC2; format: biochemical
T2 construct: Eli Lilly (provided, not a catalogue product)
T2 sequence (O75106 1-756): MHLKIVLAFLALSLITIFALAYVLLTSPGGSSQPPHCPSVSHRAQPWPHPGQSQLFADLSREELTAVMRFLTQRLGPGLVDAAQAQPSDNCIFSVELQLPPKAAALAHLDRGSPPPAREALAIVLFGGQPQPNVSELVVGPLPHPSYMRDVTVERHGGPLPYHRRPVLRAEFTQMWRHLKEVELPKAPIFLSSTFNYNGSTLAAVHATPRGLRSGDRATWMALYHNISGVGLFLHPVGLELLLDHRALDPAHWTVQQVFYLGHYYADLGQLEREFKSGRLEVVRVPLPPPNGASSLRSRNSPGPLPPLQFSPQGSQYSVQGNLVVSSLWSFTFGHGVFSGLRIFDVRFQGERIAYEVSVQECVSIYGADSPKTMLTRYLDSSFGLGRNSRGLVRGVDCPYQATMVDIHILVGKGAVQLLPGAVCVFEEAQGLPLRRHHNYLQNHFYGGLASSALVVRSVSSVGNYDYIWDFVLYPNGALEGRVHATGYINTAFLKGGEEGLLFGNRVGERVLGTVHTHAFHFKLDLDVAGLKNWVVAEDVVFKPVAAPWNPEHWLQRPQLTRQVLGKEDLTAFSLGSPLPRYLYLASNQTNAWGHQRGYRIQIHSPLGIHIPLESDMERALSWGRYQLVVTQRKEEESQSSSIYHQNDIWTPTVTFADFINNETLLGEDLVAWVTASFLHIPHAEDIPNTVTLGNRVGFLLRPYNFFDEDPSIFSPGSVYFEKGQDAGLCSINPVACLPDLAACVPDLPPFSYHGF
Protocol: Recombinant human AOC2 protein (provided by Eli Lilly). Other reagents are the same as those in Biological Test Example 1. The final concentration of test compound in 10 μL reaction system was 100 μM to 5 nM when AOC2 was detected, while other reaction conditions were the same as those in Biological Test Example 1. Data analysis and IC50 calculation method were the same as those in Biological Test Example 1.

SMILES | pIC50 [1] | pIC50 [2]
CC1CN(c2ncc(OC/C(=C/F)CN)cn2)CC(C)N1C1COC1 (stereo not shown) [Example 1, (E)-2-(((2-(3,5-dimethyl-4-(oxbutan-3-yl)piperazin-1-yl)pyrimidin-5-yl)oxo)methyl)-3-fluoroprop-2-en-1-amine] | < 5.00 | 6.00 to 7.00
COC1CC2CC1CN2c1ncc(OC/C(=C/F)CN)cn1 (stereo not shown) [Example 2] | 5.00 to 7.00 | < 6.00
NC/C(=C\F)COc1cnc(N2CCC3(CC2)COC3)nc1 [Example 3] | 5.00 to 7.00 | < 6.00
NC/C(=C\F)COc1cnc(N2CCN(C3COC3)CC2)nc1 [Example 4, (E)-3-fluoro-2-(((2-(4-(oxbutan-3-yl)piperazin-1-yl)pyrimidin-5-yl)oxo)methyl)prop-2-en-1-amine] | < 5.00 | < 6.00
CC1(C)CN(C2COC2)CCN1c1ncc(OC/C(=C/F)CN)cn1 [Example 5] | < 5.00 | 6.00 to 7.00
NC/C(=C\F)COc1cnc(N2CC3CCC(C2)N3C2COC2)nc1 [Example 6] | < 5.00 | 6.00 to 7.00
N#Cc1cc(OC/C(=C/F)CN)cnc1N1CCN(C2COC2)CC1 [Example 7] | < 5.00 | < 6.00
NC/C(=C/F)COc1cnc(N2CCN(C3COC3)CC2)nc1 [Example 8] | < 5.00 | < 6.00
NC/C(=C\F)COc1cnc(N2CCN(c3cnc(N4CCN(C5COC5)CC4)nc3)CC2)nc1 [Example 9] | 5.00 to 7.00 | 6.00 to 7.00
CC1(C)CN(c2ncc(OC/C(=C/F)CN)cn2)CCN1C1COC1 [Example 10] | < 5.00 | < 6.00
COC1CC2CCC(C1)N2c1ncc(OC/C(=C/F)CN)cn1 (stereo not shown) [Example 12] | < 5.00 | < 6.00
